Source: patent publication US9464972B2, “Apparatus and procedure for in vitro measurement of a substance, nicotine, released from a smokeless tobacco product” (priority 2011, dated 2016)
Like-named read-outs stand apart in the source and are kept apart here.

Details: for nicotine release (accumulated, of total nicotine): artificial saliva Table 3, pH 5.8, 37° C., flow 4 ml/min
Description: The nicotine extraction and collection procedure include the following steps:
1. Add fluid (140) to the reservoir (120). Fluid (140) is artificial saliva where the extraction is nicotine from a smokeless tobacco product;
2. Set the bath (200) and the heating or cooling element (220) temperature control (230) to the temperature desired as established from the in vivo environment. Where the fluid (140) is artificial saliva and, for the measurement of nicotine in a smokeless tobacco product, set the temperature to 37° C.;
3. Start the fluid pump (180) and set the pump to the desired pump rate.
4. When the temperature and flow rate are stabilized, add the product sample (330) to extraction bottle interior (304) onto the screen mesh (325). Where the product sample is for a smokeless tobacco product sample (330) the product sample (330) is a smokeless tobacco sachet; the product sample (330) is placed onto the screen mesh (325) in alignment with the supply tube (310);
5. The fluid (140) from the supply tube (310) is flowed or dripped onto the product sample (330) producing an extract (1000) from the combination of the fluid (140) and the sample (330) which is drained from the extraction bottle (300) by a collection tube (335) and is then deposited into at least one collection bottle (400) at intervals determined by experimental design. Where the product sample (330) is a smokeless tobacco product sample (330) 1−n collection bottles (400) will used with bottles (400) changed at intervals of 1-5 min based on experimental design;
6. Extract the residual element from the product sample (330) by placing the product sample (330) in solvent effective for the type of product sample (330); where the product sample (330) is a smokeless tobacco product, the solvent in the preferred embodiment is 20 to 50 ml ethanol:5% NaOH mixture (9:1), and extract with ultrasound for 30 min.
7. Measure the target element in the extract (1000) by use of a measuring instrument suitable for the attributes of the target element in the extract (1000); for the preferred embodiment when the target element is nicotine from a smokeless tobacco product the measuring instrument is high-performance liquid chromatography (HPLC); the extract (1000) of nicotine in artificial saliva and the residual nicotine from ethanol NaOH mixture are determined using HPLC in the following conditions: • 1. Chromatograph column is a C18 reverse phase column • 2. Mobile phase is methanol and 20 mmol phosphate buffer (23:77, volume to volume) with 0.2% Triethylamine, pH=6.0 • 3. Flow rate is 1 ml/min • 4. Column temperature is 35° C.
Artificial saliva temperature was maintained at 37° C., pump flow rate 1 ml/min. Artificial saliva was made using the formula in Table 1, with a pH of 6.7. The artificial saliva collection intervals were at 1, 2, 3, 4, 5, 6, 7, 8, 9, 10, 12, 14, 16, 18, 20, 24, 28, 32 minutes after the extraction started.
Artificial saliva temperature was maintained at 37° C., pump flow rate 2 ml/min. Artificial saliva was made using the formula in Table 2, with a pH of 7.0. The artificial saliva collection intervals were at 1, 2, 3, 4, 5, 6, 7, 8, 9, 10, 12, 14, 16, 18, 20, 22, 24, 26, 28, 30 minutes after the extraction start.
Artificial saliva temperature was maintained at 37° C., pump flow rate 4 ml/min. Artificial saliva was made using the formula in Table 3, with a pH of 5.8. The artificial saliva collection intervals were at 2, 4, 6, 7, 8, 10, 12, 14, 16, 18, 20, 24, 28, and 32 minutes after the extraction start.

Question: For `CN1CCCC1c1cccnc1` (centres unmarked) [nicotine], which nicotine collected (Example 1: 20 to 32 min extraction period, artificial saliva Table 1, pH 6.7, 37° C., flow 1 ml/min) is on record?
Answer: very little

Question: And the “nicotine released from tobacco (accumulated, of total nicotine)” value (Example 1: after 20 min of extraction, artificial saliva Table 1, pH 6.7, 37° C., flow 1 ml/min)?
Answer: over 90%

Question: What about the “average rate of nicotine release” value (Example 1: first 5 minutes, artificial saliva Table 1, pH 6.7, 37° C., flow 1 ml/min, smokeless tobacco sachet) of the same compound?
Answer: approximately 10%

Question: What about the “average rate of nicotine release” value (Example 1: from 6 min to 10 min, artificial saliva Table 1, pH 6.7, 37° C., flow 1 ml/min) of the same compound?
Answer: approximately 4.3%

Question: And the “average rate of nicotine release” value (Example 1: from 11 min to 20 min, artificial saliva Table 1, pH 6.7, 37° C., flow 1 ml/min)?
Answer: approximately 1%

Question: What about the nicotine collected (Example 2: 20 to 30 min extraction period, artificial saliva Table 2, pH 7.0, 37° C., flow 2 ml/min) of the same compound?
Answer: very little

Question: And the “nicotine released (of total nicotine)” value (Example 2: first 5 minutes, artificial saliva Table 2, pH 7.0, 37° C., flow 2 ml/min)?
Answer: 64%

Question: What about the “nicotine released from tobacco (accumulated, of total nicotine)” value (Example 2: first 20 min of extraction, artificial saliva Table 2, pH 7.0, 37° C., flow 2 ml/min) of the same compound?
Answer: over 95%

Question: And the “nicotine released (additional, of total nicotine)” value (Example 2: from 6 min to 10 min, artificial saliva Table 2, pH 7.0, 37° C., flow 2 ml/min)?
Answer: 20%

Question: What about the “nicotine release (accumulated, of total nicotine)” value (Example 3: first 6 min) of the same compound?
Answer: 82%

Question: What about the “nicotine release (accumulated, of total nicotine)” value (Example 3: first 10 min) of the same compound?
Answer: 92%
